Test results as given in article PMC2920594 (Journal of the American Chemical Society, 2010).
Converted amounts (≈) assume the structure as drawn.

Molecular target: FtsZ (Escherichia coli, UniProt P0A9A6)
Assay: STD NMR and STD NMR competition with GTPγS
Format: biochemical

Chain of FtsZ (P0A9A6 whole entry): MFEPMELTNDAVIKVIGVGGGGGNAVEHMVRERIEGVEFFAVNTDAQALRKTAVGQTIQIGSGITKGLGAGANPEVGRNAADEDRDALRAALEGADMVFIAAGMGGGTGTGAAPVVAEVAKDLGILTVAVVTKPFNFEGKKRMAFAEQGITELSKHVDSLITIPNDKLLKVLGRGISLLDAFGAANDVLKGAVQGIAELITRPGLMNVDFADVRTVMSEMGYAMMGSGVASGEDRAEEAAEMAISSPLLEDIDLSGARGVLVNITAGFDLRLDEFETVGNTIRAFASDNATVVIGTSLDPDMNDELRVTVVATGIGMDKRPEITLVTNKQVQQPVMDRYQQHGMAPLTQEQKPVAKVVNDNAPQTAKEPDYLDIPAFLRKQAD

Oc1cc(O)c2c(c1)C/C(Cl)=C\Cc1cc(c(Cl)cc1O)Oc1c(O)cc(cc1O)C/C(Cl)=C\Cc1cc(c(Cl)cc1O)O2 [compound 1, chrysophaentin A]
IC50: 6.7 ± 1.7 µg/mL (≈ 9.88 µM)
